{"source": "patent US11369605B2", "about": "“Optically active azabicyclo ring derivative” (priority 2018, dated 2022)", "type_in_all_cases": "cell-based", "key": {"[1]": {"system": "HOXA9 mRNA in MV4; 11 cells", "experiment": "Test 3: inhibition of mRNA transcription, HOXA9", "settings": "20 to 24 hours, fitted with GAPDH", "procedure": "(§1) Test 3: Test for the Inhibition of mRNA Transcription with Test Compounds\n(§2) MV4; 11 cells were obtained from American Type Culture Collection (ATCC). […] After the incubation, the total RNA was extracted from the cells with RNeasy™ Mini Kit (QIAGEN, 74106), and cDNA was synthesized with Superscript™ VILO™ cDNA Synthesis Kit (Invitrogen, #11754250). By using TaqMan™ Gene Expression Master Mix (Applied Biosystems, 4369016) and TaqMan™ probe (Applied Biosystems), the expression level of mRNA was quantified from the obtained cDNA with 7900HT (Applied Biosystems). The expression level of each obtained gene (MEIS1 and HOXA9) was fitted with the expression level of mRNA of GAPDH."}, "MOLM-13 cells": {"system": "MOLM-13 cells", "experiment": "Test 2: inhibition of cell proliferation, MOLM-13", "settings": "Homo sapiens, cultured 7 days, PrestoBlue", "procedure": "(§3) Test for Evaluating the Inhibition of Cell Proliferation RS4; 11 cells were obtained from American Type Culture Collection (ATCC). […] MOLM-13 cells were separately obtained from DSMZ (Deutsche Sammlung von Mikroorganismen und Zeilkulturen GmbH). […] The cells were plated to a 96-well plate in 2000 cells/well, each test compound was added thereto to adjust the final concentration of DMSO to 0.1% of DMSO, and the cells were cultured for 7 days. After the cultivation, the cell viability was calculated with PrestoBlue™ Cell Viability Reagent (Invitrogen, A13261)."}, "[2]": {"system": "MEIS1 mRNA in MV4; 11 cells", "experiment": "Test 3: inhibition of mRNA transcription, MEIS1", "procedure": "as §1, §2"}, "RS4; 11 cells": {"system": "RS4; 11 cells", "experiment": "Test 2: inhibition of cell proliferation, RS4; 11", "settings": "Homo sapiens; RS4; 11 cells, cultured 7 days, PrestoBlue", "procedure": "as §3"}}, "data": [{"smiles": "C=C1C[C@@H]2CC[C@H]1[C@@H](C(=O)N1CC3(C1)CN(c1ncncc1Oc1ccc(F)cc1C(=O)N(C(C)C)C(C)C)C3)N2", "note": "[Example 7, 5-fluoro-2-[(4-{6-[(1S,3S,4R)-5-methylidene-2-azabicyclo[2.2.2]octane-3-carbonyl]-2,6-diazaspiro[3.3]heptan-2-yl}pyrimidin-5-yl)oxy]-N,N-di(propan-2-yl)benzamide]", "values": [{"measurement": "mRNA at 1 μM (% control) HOXA9", "setting": "[1]", "result": 37.9, "unit": "% control"}, {"measurement": "IC50", "setting": "MOLM-13 cells", "result": 30, "unit": "nM"}, {"measurement": "mRNA transcription inhibition activity (in words)", "setting": "[2]; MEIS1 and HOXA9, MV4, summary of Test 3", "result": "showed the mRNA transcription inhibition activity"}, {"measurement": "mRNA at 1 μM (% control) MEIS1", "setting": "[2]; MV4, 1 μM, 20 to 24 hours, fitted with GAPDH", "result": 12.7, "unit": "% control"}, {"measurement": "IC50", "setting": "RS4; 11 cells", "result": 10, "unit": "nM"}]}]}
